According to publication PMC4942611, “Promising Tools in Prostate Cancer Research: Selective Non-Steroidal Cytochrome P450 17A1 Inhibitors” (Scientific Reports, 2016):

How the values were obtained:
human CYP17A1 [1] = biological target: T1, human CYP17A1 (Homo sapiens, UniProt P05093); test: UV-VIS ligand binding assay (spectral titration) with purified CYP17A1; conditions: 100 nM purified CYP17A1, mean over 2 measurements ± standard error
T1 construct: bearing a truncation of the N-terminal helix; made in house
T1 sequence (P05093 with tags, fused parts or gaps limits assumed): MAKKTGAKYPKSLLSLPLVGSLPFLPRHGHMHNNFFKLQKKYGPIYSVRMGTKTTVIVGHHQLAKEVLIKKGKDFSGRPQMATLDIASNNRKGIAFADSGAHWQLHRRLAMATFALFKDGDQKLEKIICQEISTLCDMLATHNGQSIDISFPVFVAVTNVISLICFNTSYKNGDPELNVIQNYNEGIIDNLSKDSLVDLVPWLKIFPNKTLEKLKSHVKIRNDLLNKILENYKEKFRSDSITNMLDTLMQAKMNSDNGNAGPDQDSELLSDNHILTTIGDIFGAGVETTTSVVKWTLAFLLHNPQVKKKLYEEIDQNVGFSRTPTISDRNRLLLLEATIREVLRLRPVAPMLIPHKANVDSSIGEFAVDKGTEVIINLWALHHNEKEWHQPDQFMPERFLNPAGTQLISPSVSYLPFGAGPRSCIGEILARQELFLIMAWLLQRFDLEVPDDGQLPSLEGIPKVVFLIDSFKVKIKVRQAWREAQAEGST
Method: Direct coordination of nitrogen-containing heterocycles to the haem iron in the active site of cytochrome P450 enzymes causes a shift of the Soret peak λmax to higher wavelengths. Thus, UV-visible absorbance spectra were recorded as purified CYP17A1 was titrated with the 19 hit compounds. Addition of compounds 1–7 (cf. Fig. 2 and S3) yielded characteristic shifts in λmax from 417 nm to as high as 427 nm, typical of direct coordination to the haem iron. Plots of the changes in absorbance as a function of concentration can be used to evaluate ligand binding affinity. […] Compounds 6 and 7 have substantial intrinsic absorbance overlapping the range of the protein spectral change. Therefore the binding constants could not be determined for these latter two compounds.
Human CYP17A1 bearing a truncation of the N-terminal helix and a 4x histidine tag on the C-terminus was expressed and purified as previously reported.
Ligand binding was measured based on a change in UV-VIS absorbance (ΔA) upon ligand addition. Purified recombinant human cytochrome P450 enzymes (100 nM) were titrated with ligands dissolved in DMSO in 5 cm path length cuvettes. CYP17A1 and CYP21A2 were prepared in 50 mM Tris-HCl, pH 7.4, 500 mM NaCl, 20% (v/v) glycerol, and 100 mM glycine. The buffer used to prepare CYP21A2 also contained 50 mM DTT. CYP3A4 and CYP2D6 were prepared in 50 mM potassium phosphate, pH 7.4, 250 mM NaCl, 20% (v/v) glycerol and 1 mM EDTA. In each case, heteroatom coordination to the haem iron yields an increase in absorbance at ~420 nm and a corresponding decrease at ~390 nm. The apparent binding constant (Kd) and the maximum spectral change (ΔAmax) were calculated from a nonlinear least-squares regression fit to the tight binding equation (2) using GraphPad Prism 6.03.

human CYP17A1 [2] = biological target: T1, human CYP17A1; test: Progesterone 17α-hydroxylase inhibition with purified CYP17A1; assay type: biochemical; conditions: for IC50: conversion of PRO to 17-OH-PRO, 10 μM progesterone, mean over 3 measurements ± standard error
Method: (§1) Purified cytochrome P450 17A1 (50 nmol) was incubated with truncated human cytochrome P450 reductase[48] and rat cytochrome b5 in a 1:4:0 or 1:4:4 ratio for hydroxylase and 17,20-lyase reactions, respectively. […] Reactions were initiated upon addition of 25 mM NADPH as the electron source. The hydroxylated product was quantified after HPLC using an UV detector and analyzed as previously published. The 17,20-lyase assay was performed similarly substituting 1.2 μM of 17α-hydroxypregnenolone as the substrate and inhibitor concentrations of 0–500 nM. The dehydroepiandrosterone product was quantitated using a coupled GC/MS method.

human CYP17A1 [3] = biological target: T1, human CYP17A1; test: 17α-hydroxypregnenolone 17,20-lyase inhibition with purified CYP17A1; assay type: biochemical; conditions: conversion of 17-OH-PRE into DHEA, 1.2 μM 17α-hydroxypregnenolone; mean over 3 measurements ± standard error
Method: as §1

CYP21A2 = biological target: T2, CYP21A2 (Homo sapiens, UniProt P08686); test: H295R cell assay, CYP21A2 activity; assay type: cell-based; conditions: H295R cells
T2 sequence (P08686 1-495): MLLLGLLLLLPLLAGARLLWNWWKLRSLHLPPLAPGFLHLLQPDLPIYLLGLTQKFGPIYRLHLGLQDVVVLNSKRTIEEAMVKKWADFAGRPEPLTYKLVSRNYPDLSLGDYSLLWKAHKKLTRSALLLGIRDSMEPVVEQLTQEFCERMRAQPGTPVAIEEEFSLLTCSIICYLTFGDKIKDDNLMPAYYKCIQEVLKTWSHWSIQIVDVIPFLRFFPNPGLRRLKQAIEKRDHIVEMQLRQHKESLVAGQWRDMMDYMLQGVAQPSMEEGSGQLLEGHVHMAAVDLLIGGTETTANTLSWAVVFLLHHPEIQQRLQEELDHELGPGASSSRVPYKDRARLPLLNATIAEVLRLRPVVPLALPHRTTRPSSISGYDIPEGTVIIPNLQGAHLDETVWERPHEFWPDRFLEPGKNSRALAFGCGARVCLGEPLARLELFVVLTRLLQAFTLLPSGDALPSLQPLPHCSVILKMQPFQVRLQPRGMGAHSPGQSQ
Method: (§2) This cellular assay was also used to evaluate inhibitor selectivity.
(§3) The H295R steroid hormone synthesis assay was performed according to the OECD validation guideline. Cells were cultured in DMEM/F12 media supplemented with 1% ITS-premix and 2.5% Nu-serum at 37 °C with a 5% CO2 atmosphere. The cells were only used for experiments between passage […]. During exposure experiments, cells were grown in 24 well plates with a density of 3 × 10^5 cells/mL. […] To avoid interference from low levels of steroid hormones present in the Nu-serum, the exposure experiment was conducted with serum-free media. Each compound was tested at a minimum of seven concentration levels using three or more replicates and the experiment was repeated on two different days (n = 6–15). On each test plate a solvent control (SC) (medium with 0.1% DMSO) was included in triplicate and the maximal concentration of DMSO in the cell medium was 0.1%[49]. After 48 hours of incubation in presence of the test compounds, 950 μL of the medium was carefully removed and internal standards (50 μl of 0.1 μg/μl solution containing deuterated steroid analogues) were added. Samples were stored at −20 °C for later analysis.

[4] = Precipitation of compound in H295R exposure medium; assay type: physicochemical; conditions: H295R assay medium, 0.1% DMSO
Method: as §2, §3

H295R cells = test: Cell viability, resazurin assay; assay type: cell-based, human
Text: Cell viability was confirmed with the resazurin assay, as described by Nielsen et al.[50].

Compound	Kd (human CYP17A1 [1])	IC50 (human CYP17A1 [2])	Potency for 17α-hydroxylase inhibition relative to abiraterone (times less potent) (human CYP17A1 [2]; recombinant human CYP17A1)	IC50 (human CYP17A1 [3])	Inhibitor concentrations at which CYP21A2 is inhibited (CYP21A2)	Concentration at which precipitation was observed [4]	Concentration at which cells were not viable (H295R cells)
Cc1ccc(-c2csc(-c3cccnc3)n2)c(C)c1 [Compound 1]	< 100 nM	230 ± 20 nM	2–3 times	500 ± 90 nM	greater than 1000 nM	around 10 μM	–
CCCn1nnc2cc(-c3cc(-c4ccncc4)c(C#N)c(N)n3)ccc21 [Compound 2]	< 100 nM	130 ± 10 nM	–	110 ± 20 nM	above 1000 nM	60 µM	–
C[C@]12CC[C@H](O)CC1=CC[C@@H]1[C@@H]2CC[C@]2(C)C(c3cccnc3)=CC[C@@H]12 [abiraterone, reference compound]	< 100 nM	92 ± 4 nM	–	36 ± 2 nM	30 to 3000 nM	–	10 µM
